Calls of active or inactive are those of the source. No cut-off for these calls is given here.
Columns and labels:
[1] = tested on: Bacillus anthracis; assay: Antibacterial activity against Bacillus anthracis spores assessed as reduction in membrane potential at 10 uM; type: functional, organism-based
[2] = tested on: Bacillus anthracis; assay: Antibacterial activity against Bacillus anthracis spores assessed as loss of membrane integrity at 0.01 uM by flow cytometry relative to control; type: functional, organism-based
[3] = tested on: Bacillus anthracis; assay: Antibacterial activity against Bacillus anthracis spores assessed as loss of membrane integrity at 0.1 uM by flow cytometry relative to control; type: functional, organism-based
[4] = tested on: Bacillus anthracis; assay: Antibacterial activity against Bacillus anthracis spores assessed as reduction in membrane potential at 1 uM; type: functional, organism-based
[5] = tested on: Bacillus anthracis; assay: Antibacterial activity against Bacillus anthracis spores assessed as reduction in membrane potential at 0.1 uM; type: functional, organism-based
[6] = tested on: Bacillus anthracis; assay: Antibacterial activity against Bacillus anthracis spores assessed as reduction in membrane potential at 0.01 uM; type: functional, organism-based
[7] = tested on: Bacillus anthracis; assay: Antibacterial activity against Bacillus anthracis spores assessed as loss of membrane integrity at 10 uM by flow cytometry relative to control; type: functional, organism-based
[8] = tested on: Bacillus anthracis; assay: Antibacterial activity against Bacillus anthracis spores assessed as inhibition of growth of replicating vegetative bacteria at 1 uM after 5 hrs; type: functional, organism-based
[9] = tested on: Bacillus anthracis; assay: Antibacterial activity against Bacillus anthracis spores assessed as loss of membrane integrity at 1 uM by flow cytometry relative to control; type: functional, organism-based
[10] = tested on: Bacillus anthracis; assay: Antibacterial activity against Bacillus anthracis spores assessed as inhibition of growth of replicating vegetative bacteria at 10 uM; type: functional, organism-based
[11] = tested on: Bacillus anthracis; assay: Antibacterial activity against Bacillus anthracis spores assessed as inhibition of growth of replicating vegetative bacteria at 0.1 uM after 50 minutes; type: functional, organism-based
[12] = tested on: Bacillus anthracis; assay: Antibacterial activity against Bacillus anthracis spores assessed as loss of spore coat by transmission electron microscopy; type: functional, organism-based
[13] = tested on: Bacillus anthracis; assay: Antibacterial activity against Bacillus anthracis assessed as effect on germination initiation-associated loss in spore heat resistance after 5 mins by spectroscopy; type: functional
[14] = tested on: Bacillus anthracis; assay: Antibacterial activity against Bacillus anthracis assessed as effect on spore germination initiation after 5 mins by spectroscopy in presence of 0.1 M MOPS nongerminating condition; type: functional, organism-based
[15] = tested on: Bacillus anthracis; assay: Antibacterial activity against Bacillus anthracis spores assessed as loss of spore cortex by transmission electron microscopy; type: functional, organism-based
[16] = tested on: Bacillus anthracis; assay: Antibacterial activity against Bacillus anthracis spores assessed as inhibition of spore germination at 10 uM preincubated for 5 mins with germinating medium measured after 18 hrs; type: functional, organism-based
[17] = tested on: Bacillus anthracis; assay: Antibacterial activity against Bacillus anthracis spores assessed as reduction in membrane potential at 0.1 uM after 5 hrs by flow cytometry; type: functional, organism-based
[18] = tested on: Bacillus anthracis; assay: Antibacterial activity against Bacillus anthracis spores assessed as decrease in spore germination initiation at 10 uM preincubated with germination medium measured after 18 hrs; type: functional, organism-based
[19] = tested on: Bacillus anthracis; assay: Antibacterial activity against Bacillus anthracis spores assessed as inhibition of growth of replicating vegetative bacteria at 100 uM; type: functional, organism-based
[20] = tested on: Bacillus anthracis; assay: Antibacterial activity against Bacillus anthracis spores assessed as loss of membrane integrity at 100 uM by flow cytometry relative to control; type: functional, organism-based
[21] = tested on: Bacillus anthracis; assay: Antibacterial activity against Bacillus anthracis spores assessed as reduction in membrane potential at 100 uM after 10 hrs by flow cytometry; type: functional, organism-based
[22] = tested on: Bacillus anthracis; assay: Antibacterial activity against Bacillus anthracis spores assessed as reduction in membrane potential at 10 uM after 10 hrs by flow cytometry; type: functional, organism-based
[23] = tested on: Bacillus anthracis; assay: Antibacterial activity against Bacillus anthracis spores assessed as loss of exosporium by transmission electron microscopy; type: functional, organism-based
[24] = tested on: Bacillus anthracis; assay: Antibacterial activity against Bacillus anthracis spores assessed as inhibition of growth of replicating vegetative bacteria at 1 uM; type: functional, organism-based
[25] = tested on: Bacillus anthracis; assay: Antibacterial activity against Bacillus anthracis spores assessed as reduction in membrane potential at 10 uM after 5 hrs by flow cytometry; type: functional, organism-based
[26] = tested on: Bacillus anthracis; assay: Antibacterial activity against Bacillus anthracis spores assessed as reduction in membrane potential at 0.1 uM after 10 hrs by flow cytometry; type: functional, organism-based
[27] = tested on: Bacillus anthracis; assay: Antibacterial activity against Bacillus anthracis spores assessed as reduction in membrane potential at 100 uM after 5 hrs by flow cytometry; type: functional, organism-based
[28] = tested on: Bacillus anthracis; assay: Antibacterial activity against Bacillus anthracis assessed as effect on hydration of spore structure-associated loss in refractility after 10 min by spectroscopy; type: functional
[29] = tested on: Bacillus anthracis; assay: Antibacterial activity against Bacillus anthracis spores assessed as reduction in membrane potential at 1 uM after 10 hrs by flow cytometry; type: functional, organism-based
[30] = tested on: Bacillus anthracis; assay: Antibacterial activity against Bacillus anthracis spores assessed as reduction in membrane potential at 1 uM after 5 hrs by flow cytometry; type: functional, organism-based

O=C(O)c1cn(C2CC2)c2cc(N3CCNCC3)c(F)cc2c1=O
Activity [1]: inactive
Activity [2]: Active
Activity [3]: Active
Activity [4]: inactive
Activity [5]: inactive
Activity [6]: inactive
Activity [7]: Active
inhibition [8]: inactive
Activity [9]: Active

C=C(NC(=O)[C@@H](NC(=O)[C@H](Cc1cnc[nH]1)NC(=O)[C@@H](NC(=O)[C@H](CO)NC(=O)[C@@H]1CS[C@@H](C)[C@H]2NC(=O)C(=C)NC(=O)[C@H](NC(=O)[C@H](CCCCN)NC(=O)[C@H](CCSC)NC(=O)[C@H](CC(N)=O)NC(=O)[C@@H]3CS[C@@H](C)[C@@H](NC(=O)[C@H](CCCNN)NC(=O)[C@@H]4CS[C@@H](C)[C@@H](NC(=O)[C@@H]5CSC[C@@H](NC(=O)/C(=C\C)NC(=O)[C@@H](N)[C@@H](C)CC)C(=O)N[C@@H]([C@@H](C)CC)C(=O)NC(=C)C(=O)N[C@@H]([C@@H](C)CC)C(=O)N5)C(=O)N5CCC[C@H]5C(=O)NCC(=O)N4)C(=O)NCC(=O)N[C@@H](C)C(=O)N[C@@H]([C@@H](C)CC)C(=O)N[C@@H](CCSC)C(=O)NCC(=O)N3)[C@H](C)SC[C@H](NC2=O)C(=O)N[C@H](Cc2cnc[nH]2)C(=O)N1)[C@@H](C)CC)C(C)C)C(=O)N[C@@H](CCCCN)C(=O)O [NISIN]
growth inhibition (GI) [10]: Active
growth inhibition (GI) [11]: Active
Activity [12]: inactive
Activity [13]: >80%
Activity [14]: inactive
Activity [3]: Active
Activity [15]: inactive
inhibition [16]: Active
inhibition [17]: inactive
inhibition [18]: Active
growth inhibition (GI) [19]: Active
Activity [20]: Active
Activity [21]: Active
Activity [22]: Active
Activity [23]: inactive
growth inhibition (GI) [24]: Active
Activity [25]: Active
inhibition [26]: inactive
Activity [27]: Active
Activity [28]: >65%
Activity [7]: Active
Activity [29]: Active
Activity [9]: Active
Activity [30]: Active

— ChEMBL document CHEMBL1629561, “Inhibition of Bacillus anthracis spore outgrowth by nisin” (Antimicrob Agents Chemother, 2008)
